# Assay results taken from article PMC5995184, “Potent anti-leukemic activity of a specific cyclin-dependent kinase 9 inhibitor in mouse models of chronic lymphocytic leukemia” (Oncotarget, 2018).
# Columns and labels:
# CDK4 = CDK4 (Homo sapiens, UniProt P11802); assay: FRET-based LANCE Ultra in vitro enzymatic kinase assay, CDK4; assay type: biochemical
# Experimental: IC50 values for CDK inhibitors were determined using the fluorescence resonance energy transfer (FRET)-based LANCE Ultra KinaSelect Ser/Thr kit (Perkin Elmer). Kinase activity and inhibition were measured according to the manufacturer’s instructions and as previously described. […] FRET signals were recorded in a time-resolved manner in a Perkin Elmer EnVision reader. Purified cyclin-kinase pairs were obtained from the following suppliers: Carna Biosciences (CDK1-Cyclin B1, CDK6-Cyclin D3, CDK7-Cyclin H-MAT1), ProQinase (CDK2-Cyclin A) and Invitrogen (CDK9-Cyclin T1).
# Data were analyzed with GraphPad Prism 7 software. Differences were assessed by unpaired or paired Student t tests if not indicated otherwise. Two-sided probabilities of less than 0.05 were considered significant. Nonlinear regression sigmoidal dose-response curve fit was used to determine the IC50 values and to generate graphs.
# [1] = system: TCL1 CLL cells (CD5+CD19+), T and B lymphocytes; assay: TCL1 transgenic CLL mice, oral LDC526, longitudinal blood and final spleen analysis; assay type: in vivo, mouse
# From the text: Another widely used preclinical CLL model are TCL1 transgenic mice. The TCL1 transgenics represent a constitutive CLL model not involving the adoptive transfer of cells. This model mirrors the natural course of human IgVH-unmutated CLL including its disease progression. In addition, this model has also been widely used by others to test novel therapeutic molecules. […] Consecutive blood sampling allowed us to carry out a longitudinal study in individual TCL1 and control mice. For this, we chose a cohort of TCL1 and littermate control mice, which were 9-12 months old (Figure 5A). We chose TCL1 transgenics with high peripheral CLL cell (CD19+CD5+) counts (14.6±7.4/nl, mean±SEM). Given the presumably high leukemic burden in these aged TCL1 mice and the reduced general condition of some NSG mice receiving 75 mg/kg for 5 days we decided to dose TCL1 mice with 50 mg/kg daily for two consecutive days (Figure 5A). As the experiment was longitudinally designed and there was no effect expected of administering carrier to wild-type control mice we omitted this control group and established three experimental groups (Figure 5A). In order to minimize stress by collecting blood specimens we sampled blood three times, 8 days apart (days -5, +3 and +11; Figure 5A). Compared to blood smears prepared before commencing LDC526 treatment a marked decrease of peripheral blood leukocytes and CLL cells was observed two days post the last LDC526 administration to TCL1 transgenic mice (Figure 5B). In contrast to the carrier control treated TCL1 mice, white blood cell counts (WBC) dropped in LDC526-treated wild-type and TCL1 mice (Figure 5C). In comparison to wild-type control mice, where WBC dropped to 34% of baseline values, the WBC decrease in TCL1 mice was more dramatic dropping to 8% of baseline values (Figure 5D).
# All mice were bred and housed at the University Hospital Essen animal care facility. TCL1 mice were back-crossed more than 6 generations into the C57BL/6 background and were genotyped as previously described. Age-matched TCL1 wild-type littermates served as controls. Peripheral blood counts were determined with the VetABC analyzer (scil, Viernheim, Germany). Blood smears were Wright-Giemsa stained. For the human CLL xenograft experiments eight to 14-week-old NOD.Cg-Prkdc^scid Il2rg^tm1Wjl/SzJ (NOD/scid/γc^null; NSG) mice were sublethally irradiated (3.25 Gy) 24 hours before transplantation. Freshly isolated 1.0 x 10^8 PBMC suspended in 0.2 ml of RPMI were intravenously transplanted as previously described. For oral administration, LDC526 was diluted in polyethelene glycol (PEG Mn 400, Sigma-Aldrich) and administerd by gavage. Animal experiments were performed in accordance with institutional guidelines approved by the Animal Care Committee of the University Hospital Essen.
# LDC526 [(3-((4-(4-fluoro-2-methoxyphenyl)-1,3,5-triazin-2-yl)amino)phenyl)methane-sulfonamide, molecular weight 389,41 g/mol, Figure 1A] was provided as powder (LDC526 synthesis, supplementary methods). For oral gavage administration LDC526 was diluted in polyethelene glycol (PEG Mn 400, Sigma-Aldrich, Munich, Germany) followed by sonication for 3 x 5 minutes with intermediate mixing.
# Apoptosis and cell death were determined by using Annexin V (BD Biosciences, Heidelberg, Germany) and 4′,6-Diamidin-2-phenylindol (DAPI, Sigma-Aldrich) staining. Erythrocytes of murine peripheral blood samples were lysed with NH4Cl hypotonic solution. Single cell suspensions of murine spleens were prepared as previously described. Murine cells were stained with antibodies directed against murine CD3 (clone 145-2C11), CD5 (53-7.3) and CD19 (1D3), respectively. For the detection of human cells in NSG spleens antibodies against human CD3 (clone SK7), CD4 (SK3), CD5 (L17F12), CD8 (SK1), CD19 (J3-119 or SJ25C1) and CD45 (2D1) were used (purchased from BD Bioscience, Biolegend and Beckman Coulter). […]
# Chain of CDK4 (P11802 whole entry): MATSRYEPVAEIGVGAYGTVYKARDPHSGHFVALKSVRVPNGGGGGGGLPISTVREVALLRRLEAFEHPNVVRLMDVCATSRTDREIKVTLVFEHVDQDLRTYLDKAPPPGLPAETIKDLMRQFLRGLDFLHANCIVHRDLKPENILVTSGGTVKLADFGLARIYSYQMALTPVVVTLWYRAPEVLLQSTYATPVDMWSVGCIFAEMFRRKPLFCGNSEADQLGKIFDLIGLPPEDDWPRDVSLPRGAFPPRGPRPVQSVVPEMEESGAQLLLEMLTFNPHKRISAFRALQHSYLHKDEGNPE
# Chain of CDK4 (P24385 whole entry partner): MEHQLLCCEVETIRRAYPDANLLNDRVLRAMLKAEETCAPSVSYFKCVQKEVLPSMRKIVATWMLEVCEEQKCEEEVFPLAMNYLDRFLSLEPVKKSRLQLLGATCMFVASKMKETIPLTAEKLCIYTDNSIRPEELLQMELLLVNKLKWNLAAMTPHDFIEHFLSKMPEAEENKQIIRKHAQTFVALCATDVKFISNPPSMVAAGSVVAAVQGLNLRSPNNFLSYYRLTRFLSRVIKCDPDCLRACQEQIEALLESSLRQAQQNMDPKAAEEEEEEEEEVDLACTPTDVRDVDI
structure (smiles),measurement,setting,value
"COc1cc(F)ccc1-c1ncnc(Nc2cccc(CS(N)(=O)=O)c2)n1 [LDC526, (3-((4-(4-fluoro-2-methoxyphenyl)-1,3,5-triazin-2-yl)amino)phenyl)methane-sulfonamide]",selectivity versus CDK9 compared to CDK4,CDK4,291 fold
same,decrease of peripheral blood CLL counts of individual TCL1 mice,[1]; 50 mg/kg for two days,at least 8 fold
same,decrease of TCL1 blood T cells,"[1]; 50 mg/kg for two days, day +3",6 fold
same,decrease of mean TCL1 blood CLL numbers compared to baseline,"[1]; 50 mg/kg for two days, day +3",16 fold
same,hemoglobin counts,"[1]; LDC526-treated mice, longitudinal",did not change significantly
same,increase of peripheral blood CLL numbers on day +11 compared to day +3,[1]; TCL1 mice,29%
same,"mean platelet concentrations, percent of baseline levels",[1]; TCL1 mice after LDC526 treatment,≥ 50%
same,"WBC, percent of baseline values","[1]; TCL1 mice, 50 mg/kg daily for two days, day +3",8%
same,drop of mean WBC,"[1]; TCL1 mice, 50 mg/kg for two days",12 fold
same,"non-malignant B cell numbers, percent of baseline values","[1]; TCL1 mice, peripheral blood",1.4%
same,"peripheral blood TCL1 CLL cells, percent of baseline levels",[1]; day +3,6.4%
same,splenic weights versus carrier control TCL1 mice,[1]; day +11,significantly lower
